One experiment concerns the target T1, adenosine A1 receptor (Rattus norvegicus, UniProt P25099).
T1 construct: Whole brain minus cerebellum and brainstem from male Long Evans rats (150-200 g) was homogenized; from tissue; host or cells: rat whole brain minus cerebellum and brainstem, membrane homogenate
T1 sequence (P25099 1-326): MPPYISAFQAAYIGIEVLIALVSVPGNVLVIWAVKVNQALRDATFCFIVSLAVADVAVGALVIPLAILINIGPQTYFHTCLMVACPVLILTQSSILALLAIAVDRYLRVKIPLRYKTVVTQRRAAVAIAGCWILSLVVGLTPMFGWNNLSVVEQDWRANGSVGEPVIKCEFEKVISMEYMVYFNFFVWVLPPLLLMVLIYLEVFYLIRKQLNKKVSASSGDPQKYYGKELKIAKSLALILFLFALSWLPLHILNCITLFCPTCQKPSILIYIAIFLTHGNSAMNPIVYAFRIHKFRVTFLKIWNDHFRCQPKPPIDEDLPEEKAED
In words: Adenosine Receptor Binding - A1 Receptor Affinity (RBA1). To be noted: [3H]-CHA, rat whole brain membranes; read-out: RBA-1. As to the method:
Adenosine Receptor Binding - A1 Receptor Affinity (RBA1)
Whole brain minus cerebellum and brainstem from male Long Evans rats (150-200 g) was homogenized in 30 volumes of ice-cold 0.05 M Tris-HCI buffer pH 7.7 using a Brinkman Polytron PT-10 (setting number 6 for 20 seconds) and centrifuged for ten minutes at 20,000 x g (Sorvall RC-2), 4°C. The supernatant was discarded, and the pellet was resuspended and centrifuged as before. The pellet was resuspended in 20 ml Tris-HCI buffer containing two International Units/ml of adenosine deaminase (Sigma type III from calf intestinal mucosa), incubated at 37°C for 30 minutes, then subsequently at 0°C for ten minutes. The homogenate was again centrifuged, and the final pellet was resuspended in ice-cold 0.05 M Tris-HCI buffer pH 7.7 to a concentration of 20 mg/ml original wet tissue weight and used immediately.
Tissue homogenate (10 mg/ml) was incubated in 0.05 M Tris-HCI buffer pH 7.7 containing 1.0 nM [^3H]-N^6-cyclohexyladenosine (^3H]-CHA) with or without test agents in triplicate for one hour at 25°C. Incubation volume was 2 ml. Unbound [^3H]-CHA was separated by rapid filtration under reduced pressure through Whatman glass fiber (GF/B) filters. The filters were rinsed three times with 5 ml of ice cold 0.05 M Tris-HCI buffer pH 7.7. The radio-labeled ligand retained on the filter was measured by liquid scintillation spectrophotometry after shaking the filters for one hour or longer on a mechanical shaker in 10 ml of Beckman Ready Solv HP scintillation cocktail.
Nonspecific binding was defined as the binding which occurred in the presence of 1 mM thophylline. […] The Scatchard plot was calculated by linear regression of the line obtained by plotting the amount of radioligand bound (pmoles/gram of tissue) versus [formula] Since the amount of radioligand bound was a small fraction of the total amount added, free radioligand was defined as the concentration (nM) of radioligand added to the incubation mixture. The Hill coefficient was calculated by linear regression of the line obtained by plotting the log of the bound radioligand vs the log of the [formula] The maximal number of binding sites (Bmax) was calculated from the Scatchard plot.

In the next experiment the test system is conscious rat. In words: Antihypertensive evaluation (AHP3): direct monitoring of aortic blood pressure and heart rate. Format: in vivo. An excerpt:
This test procedure is described in the following paragraphs. A Method for the Direct Monitoring of Aortic Blood Pressure and Heart Rate from Conscious Rats The continuous monitoring of pulsatile blood pressure (BP) from unrestrained conscious rats surgically equipped with polyethylene cannulas was accomplished by means of a computer assisted data capture scheme (CADCS). The basic elements of the methodology are the cannulation procedure and the CADCS. Cannulation Procedure: Rats were anesthetized with Telazol (1:1 tiletamine HCI and zolazepam HCI); 20-40 mg/kg IM and the descending aorta exposed via a midline incision. Cannulas fabricated from polyethylene tubing were inserted into the aorta via an undersized puncture hole below the renal arteries. […] The cannulas, consisting of a PE100 (0.86 mm ID) body and a PE50 (0.58 mm ID) tip, were attached to a trocar, inserted through the psoas muscle, and passed subcutaneously along the midline of the back and externalized between the ears. The cannulas were anchored to the posas muscle and between the scaluale (3-0 green braided suture). The midline incision was closed in two steps (muscle first, skin second) using continuous over-and over sutures (4-0 chronic). Each rat was then given penicillin 30,000 units subcutaneously (Penicillin G Procaine Sterile Suspension). The rats were fitted with a harness-spring-swivel assembly designed to protect the cannula and to provide the rat relative freedom of movement. […] While on test, each rat received a continuous slow infusion of heparinized saline solution (approximately 400 I or 40 units of heparin per 24 hour period) to prevent clot formation. […] The data were first stored on the data concentrator disk and then transferred to a magnetic tape for analysis and report generation by the main research computer. The overall scheme involved modulating the primary signal from the pressure transducer, generating the primary data set of the one-minute values for systolic, diastolic, and mean blood pressures and heart rate by the in-lab microcomputer and the storage, analysis, and report generation by the main research computer. The transducers were connected to analog signal conditioning mocules. The modules provided a regulated excitation voltage for the transducers, amplification as required to interface the microprocessors and an active low pass filter to compensate for the pressure wave form distortion produced by the flexible, fluid filled, narrow cannula. […] The microcomputer controlled the sequential acqusition of data from the modular interface units through an internal synchronous time-of-day clock/time base generator. […] The microcomputer processed each blood pressure sample as it was received to produce "running average" values for heart rate, and mean, systolic and diastolic blood pressures.

Structures are written as SMILES.

Here are results for 23 molecules from patent EP0179667B1, “N6-substituted adenosines” (priority 1984, dated 1986).

For the molecule `COc1ccc2c(c1)C(Nc1ncnc3c1ncn3[C@@H]1O[C@H](CO)[C@@H](O)[C@H]1O)CCC2` (single isomer, unassigned) [Example 5, N6-[1-(7-Methoxy)-tetralinyl]-adenosine], at adenosine A1 receptor, the IC50 was 40 nM. Also, the “change in HR (Heart Rate)” value in the experiment on conscious rat (3 mg/kg, Hour 1, conscious rat) stood at 0%.

For the molecule `COc1ccc2c(c1)C(Nc1ncnc3c1ncn3[C@@H]1O[C@H](CO)[C@@H](O)[C@H]1O)CCC2` (single isomer, unassigned) [Example 8], the IC50 on adenosine A1 receptor worked out at 21 nM.

As to `OC[C@H]1O[C@@H](n2cnc3c(NC4CCCc5ccccc54)ncnc32)C(O)[C@@H]1O` (stereo in doubt) [Example 1, (R,S)-N^6-[1-Tetralinyl]-adenosine], the IC50 at adenosine A1 receptor was found to be 59 nM. The “change in HR (Heart Rate)” value in the experiment on conscious rat (10 mg/kg, Hour 9, conscious rat) came to 0%.

Take `OC[C@H]1O[C@@H](n2cnc3c(NC4CCCc5ccccc54)ncnc32)[C@H](O)[C@@H]1O` (stereo partly drawn) [Example 2, (R)-N^6-[1-Tetralinyl]-adenosine]: the IC50 on adenosine A1 receptor was 44 nM.

As for `OC[C@H]1O[C@H](n2cnc3c(NC4CCCc5ccccc54)ncnc32)[C@H](O)[C@@H]1O` (stereo partly drawn) [Example 3, (S)-N^6-[1-Tetralinyl]-adenosine], the IC50 at adenosine A1 receptor stood at 403 nM. Besides, the “change in HR (Heart Rate)” value in the experiment with conscious rat (10 mg/kg, Hour 5, conscious rat) came to 0%.

`CC1CCc2ccccc2C1Nc1ncnc2c1ncn2[C@@H]1O[C@H](CO)[C@@H](O)[C@H]1O` (stereo partly shown) [Example 4, N^6-[1-(2-Methyl)-tetralinyl]-adenosine]: on adenosine A1 receptor, the IC50 came to 19 nM.

Take `COc1ccc2c(c1)CCCC2Nc1ncnc2c1ncn2[C@@H]1O[C@H](CO)[C@@H](O)[C@H]1O` (stereo partly shown) [Example 6, N^6-[1-(6-Methoxy)-tetralinyl]-adenosine]: the IC50 on adenosine A1 receptor came to 126 nM.

For `COc1cccc2c1CCCC2Nc1ncnc2c1ncn2[C@@H]1O[C@H](CO)[C@@H](O)[C@H]1O` (stereo partly shown) [Example 7, N^6-[5-Methoxy-1-aminotetralin]-adenosine], the IC50 on adenosine A1 receptor is 42 nM.

With `COc1ccc2c(c1)C(Nc1ncnc3c1ncn3[C@H]1O[C@H](CO)[C@@H](O)[C@H]1O)CCC2` (stereo partly drawn) [Example 9, (S)-N^6-(7-methoxy-1-tetralinyl)-adenosine], the IC50 on adenosine A1 receptor stood at 4550 nM. Besides, the “change in MAP (Mean Arterial Pressure)” value in the experiment with conscious rat (3 mg/kg, Hour 5, conscious rat) was determined as 9%.

On to `COc1cccc2c1CCC[C@@H]2Nc1ncnc2c1ncn2[C@@H]1O[C@H](CO)[C@@H](O)[C@H]1O` [Example 10, (S)-N^6-[5-methoxy-1-aminotetralin]-adenosine], for which, at adenosine A1 receptor, the IC50 amounted to 19 nM.

Take `CC(=O)Oc1ccccc1C(=O)OC[C@H]1O[C@@H](n2cnc3c(NC4CCCc5ccccc54)ncnc32)[C@H](O)[C@@H]1O` (stereo partly shown) [Example 14, N^6-(1-tetralinyl)-5'-O-(O-acetylsalicoyl)adenosine]: the IC50 on adenosine A1 receptor worked out at 8220 nM.

Take `CC(=O)OC[C@H]1O[C@@H](n2cnc3c(NC4CCCc5ccccc54)ncnc32)[C@H](O)[C@@H]1O` (stereo partly shown) [Example 15, N^6-(1-tetralinyl)-5'-acetyl-adenosine]: the IC50 at adenosine A1 receptor came to 500 nM.

As for `OC[C@H]1O[C@@H](n2cnc3c(NC4CCCc5c(O)cccc54)ncnc32)[C@H](O)[C@@H]1O` (stereo partly shown) [Example 16, N^6-[1-(5-hydroxy)-tetralinyl]-adenosine], the IC50 on adenosine A1 receptor stood at 36 nM. Further, in the experiment with conscious rat (3 mg/kg, Hour 9, conscious rat), the “change in HR (Heart Rate)” value is on record as 0%.

In the case of `OC[C@H]1O[C@@H](n2cnc3c(NC4CCCc5ccc(O)cc54)ncnc32)[C@H](O)[C@@H]1O` (stereo partly shown) [Example 17], the IC50 at adenosine A1 receptor turned out to be 71 nM.

Take `Cc1cc(C)c2c(c1)C(Nc1ncnc3c1ncn3[C@@H]1O[C@H](CO)[C@@H](O)[C@H]1O)CCC2` (stereo partly shown) [Example 18, N^6-[1-(5,7-dimethyl)-tetralinya]-adenosine]: the IC50 at adenosine A1 receptor is 20 nM.

For `OC[C@H]1O[C@@H](n2cnc3c(NCC4CCc5ccccc54)ncnc32)[C@H](O)[C@@H]1O` (stereo partly shown) [Example 21, N^6-[2,3-dihydro-1H-inden-1-yl]methyladenosine], the IC50 at adenosine A1 receptor was found to be 9 nM.

Consider `OC[C@H]1O[C@@H](n2cnc3c(NCC4=CCc5ccccc54)ncnc32)[C@H](O)[C@@H]1O` [Example 22, N^6-[1H-inden-3-yl]methyladenosine], for which the IC50 at adenosine A1 receptor was 57 nM.

Regarding `OC[C@H]1O[C@@H](n2cnc3c(NCC4(O)CCCc5ccccc54)ncnc32)[C@H](O)[C@@H]1O` (stereo partly shown) [Example 23, N^6-[1-hydroxy-1-tetralinyl]methyl adenosine], the IC50 on adenosine A1 receptor stood at 108 nM.

On to `OC[C@H]1O[C@@H](n2cnc3c(NCC4=CCCc5ccccc54)ncnc32)[C@H](O)[C@@H]1O` [Example 24, N^6-[3,4-dihydro-1-naphthalenyl]methyladenosine], for which the IC50 at adenosine A1 receptor amounted to 159 nM.

For the molecule `OC[C@H]1O[C@@H](n2cnc3c(NCC4(O)CCc5ccccc54)ncnc32)[C@H](O)[C@@H]1O` (stereo partly shown) [Example 25, N^6-[2,3-dihydro-1-hydroxy-1H-inden-1-yl]methyladenosine], the IC50 on adenosine A1 receptor was determined as 120 nM.

Regarding `OC[C@H]1O[C@@H](n2cnc3c(NCC4=CCCCc5ccccc54)ncnc32)[C@H](O)[C@@H]1O` [Example 26, N^6-(1-benzocycloheptenyl)methyladenosine], the IC50 on adenosine A1 receptor is 713 nM.

With `OC[C@H]1O[C@@H](n2cnc3c(NCC4(O)CCCCc5ccccc54)ncnc32)[C@H](O)[C@@H]1O` (stereo partly shown) [Example 27, N^6-(1-hydroxy-1-benzocycloheptyl]methyladenosine], the IC50 on adenosine A1 receptor was 445 nM.

Consider `OC[C@H]1O[C@@H](n2cnc3c(NCC4CCCCc5ccccc54)ncnc32)[C@H](O)[C@@H]1O` (stereo partly shown) [Example 28, N^6-(1-benzocycloheptyl)methyladenosine], for which the IC50 on adenosine A1 receptor stood at 208 nM.
